From ChEMBL document CHEMBL1201862, “PubChem BioAssay data set” (2004)
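In this assay, cells in 96-well plates receive the compound at five concentrations for 48 hours. Endpoints are linearly interpolated between the surrounding concentrations. GI50 is the concentration that inhibits growth by half.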 Activity calls are given as the source filed them. Rule as the data show it: active = GI50 up to about 1.1 µM and inactive = higher.

Assays:
Test in all cases: NCI anticancer screen, dose series, 48 h
HCT-116 = system: HCT-116
NCI/ADR-RES = system: NCI/ADR-RES
SR = system: SR
SK-MEL-28 = system: SK-MEL-28
HCC 2998 = system: HCC 2998
CAKI-1 = system: CAKI-1
SNB-19 = system: SNB-19
SF-268 = system: SF-268
NCI-H23 = system: NCI-H23
NCI-H460 = system: NCI-H460
SK-MEL-2 = system: SK-MEL-2
786-0 = system: 786-0
HL-60 = system: HL-60
RPMI-8226 = system: RPMI-8226
IGROV-1 = system: IGROV-1
SNB-75 = system: SNB-75
LOX IMVI = system: LOX IMVI
OVCAR-4 = system: OVCAR-4
RXF 393 = system: RXF 393
OVCAR-3 = system: OVCAR-3

Measured: GI50

CC(C)=CCc1c2c(c(O)c3c(=O)c4c(oc13)-c1ccc(O)cc1OC4C=C(C)C)C=CC(C)(C)O2 (stereo not given)
inactive: HCT-116 8.45 µM | NCI/ADR-RES 16.9 µM | SR 5.33 µM | SK-MEL-28 14.6 µM | HCC 2998 3.34 µM | CAKI-1 20 µM | SNB-19 15.3 µM | SF-268 14.2 µM | NCI-H23 6.31 µM | NCI-H460 13.7 µM | SK-MEL-2 12.6 µM | 786-0 11.4 µM | HL-60 15.2 µM | RPMI-8226 3.54 µM | IGROV-1 14 µM | SNB-75 11.9 µM | LOX IMVI 8.61 µM | OVCAR-4 11.6 µM | RXF 393 7.29 µM | OVCAR-3 12.3 µM

Nc1ncn([C@H]2C[C@H](O)[C@@H](CO)O2)c(=O)n1 [DECITABINE]
inactive: HCT-116 48.9 µM | NCI/ADR-RES > 347 µM | SR 2.67 µM | SK-MEL-28 97.3 µM | HCC 2998 105 µM | CAKI-1 219 µM | SNB-19 138 µM | SF-268 119 µM | NCI-H23 118 µM | NCI-H460 6.59 µM | SK-MEL-2 38.1 µM | 786-0 9.42 µM | HL-60 > 24.8 µM | RPMI-8226 54.7 µM | IGROV-1 102 µM | SNB-75 82.8 µM | LOX IMVI 99.5 µM | OVCAR-4 104 µM | RXF 393 136 µM | OVCAR-3 76.6 µM
